From patent US5270302A, “Derivatives of tetrapeptides as CCK agonists” (priority 1991, dated 1993)
Read-outs that look alike come from different tables or passages of the source. *1 amine or outer side, *2 acyl side, *3 side chain or, on linkers, in order; H or OH if unused. Where a SMILES comes first, the peptide text is derived from it. Side-chain parts run from the residue outwards. [ ]: non-standard residue; d: D form. The star is where a group is joined. Propanoyl(3,3-Ph2) = O=C(CC(c1ccccc1)c1ccccc1)*; 2Naphthoyl(6-OH) = O=C(c1ccc2cc(O)ccc2c1)*; Butanoyl(3,3-Me2) = CC(C)(C)CC(=O)*; Isopropoxycarbonyl = CC(C)OC(=O)*; NMeF = CN[C@@H](Cc1ccccc1)C(=O)O; X10 = COc1ccc(C=CC(=O)*)c(OC)c1; Cha = N[C@@H](CC1CCCCC1)C(=O)O; NMeD = CN[C@@H](CC(=O)O)C(=O)O; X4 = O=C(OC1C2CC3CC(C2)CC1C3)*; NH(2-Me-phenyl) = Cc1ccccc1N*; Suc = O=C(CCC(=O)[*:2])[*:1]; X1 = O=C(C=Cc1ccc(O)cc1)*; X15 = Clc1cccc(N*)c1Cl; Boc = CC(C)(C)OC(=O)*; CO = O=C([*:1])[*:2]; Bz = O=C(c1ccccc1)*; NHtBu = CC(C)(C)N*; Moc = COC(=O)*

How the values were obtained:
Type-B CCK receptor = biological target: T1, Type-B CCK receptor (Cavia porcellus, UniProt H0VZC5); assay: Radioligand binding of [125I]BH-CCK-8 in guinea pig cerebral cortical membrane preparations
T1 construct: Cortical and pancreatic membranes were prepared as described; from tissue; host or cells: guinea pig cerebral cortex membranes
T1 sequence (H0VZC5 1-426): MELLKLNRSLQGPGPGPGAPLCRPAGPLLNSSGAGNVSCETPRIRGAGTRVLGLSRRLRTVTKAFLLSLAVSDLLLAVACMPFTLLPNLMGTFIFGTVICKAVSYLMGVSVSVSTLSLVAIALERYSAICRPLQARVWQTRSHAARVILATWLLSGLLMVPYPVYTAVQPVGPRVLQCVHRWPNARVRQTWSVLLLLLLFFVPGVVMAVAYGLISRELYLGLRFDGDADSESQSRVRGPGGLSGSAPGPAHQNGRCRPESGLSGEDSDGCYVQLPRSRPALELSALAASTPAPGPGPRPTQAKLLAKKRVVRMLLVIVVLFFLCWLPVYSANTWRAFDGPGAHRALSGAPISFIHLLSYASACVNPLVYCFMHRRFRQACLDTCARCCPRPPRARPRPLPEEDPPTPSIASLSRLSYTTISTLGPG
Method in brief: (§1)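 Membranes came from male guinea pig pancreas (type A) or cerebral cortex (type B) and were resuspended in pH 7.4 HEPES-EGTA-salt buffer containing bestatin and phosphoramidon. Test compounds competed with [125I]BH-CCK-8 in 0.1% BSA: cortex 150 min at 30 °C, pancreas 150 min at 37 °C. Reactions ended by filtration; IC50 from Hill analysis.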

Type-A CCK receptor = biological target: T2, Type-A CCK receptor (Cavia porcellus, UniProt Q63931); assay: Radioligand binding of [125I]BH-CCK-8 in guinea pig pancreatic membrane preparations
T2 construct: Cortical and pancreatic membranes were prepared as described; from tissue; host or cells: guinea pig pancreas membranes
T2 sequence (Q63931 1-430): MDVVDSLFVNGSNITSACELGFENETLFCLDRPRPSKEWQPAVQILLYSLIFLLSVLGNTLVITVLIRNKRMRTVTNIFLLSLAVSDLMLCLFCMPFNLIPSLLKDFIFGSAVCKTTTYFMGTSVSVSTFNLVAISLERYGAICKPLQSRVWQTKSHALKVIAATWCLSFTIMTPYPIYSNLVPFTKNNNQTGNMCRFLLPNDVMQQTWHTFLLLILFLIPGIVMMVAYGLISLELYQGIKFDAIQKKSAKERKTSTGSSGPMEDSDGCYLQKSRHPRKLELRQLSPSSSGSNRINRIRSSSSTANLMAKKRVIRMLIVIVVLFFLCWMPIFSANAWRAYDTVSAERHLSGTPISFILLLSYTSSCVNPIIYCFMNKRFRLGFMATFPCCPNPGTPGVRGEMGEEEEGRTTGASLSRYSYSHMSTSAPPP
Method in brief: as §1

[1] = IC50 (nM) 125I-BH-CCK-8 Type-A receptor, guinea pig pancreatic membranes, 37° C., 150 min
[2] = guinea pig cortical membranes, 30° C., 150 minutes, read-out: IC50 (nM) 125I-BH-CCK-8 Type-B receptor
[3] = guinea pig pancreatic membranes, 37° C., 150 min, read-out: IC50 (nM) 125I-BH-CCK-8 Type-A receptor
[4] = IC50 (nM) 125I-BH-CCK-8 Type-B receptor, guinea pig cortical membranes, 30° C., 150 minutes

Row | Structure (SMILES) | IC50 (Type-B CCK receptor) | IC50 (Type-A CCK receptor; [1]) | IC50 (Type-B CCK receptor; [2]) | IC50 (Type-A CCK receptor; [3]) | IC50 (Type-B CCK receptor; [4]) | further results
1 | Cc1ccccc1NC(=O)NCCCC[C@H](NC(=O)[C@H](Cc1c[nH]c2ccccc12)NC(=O)OC(C)C)C(=O)N[C@@H](CC(=O)O)C(=O)N(C)[C@@H](Cc1ccccc1)C(N)=O [Example 78, Isopropyloxycarbonyl-Trp-Lys(ε-N-(2-methylphenyl)aminocarbonyl)-Asp-(NMe)PheNH2] (Isopropoxycarbonyl-WK([CO-NH(2-Me-phenyl)])D[NMeF]-NH2) | 5000 nM | 1.6 nM | – | – | – | –
2 | CC(C)(C)OC(=O)N[C@@H](Cc1c[nH]c2ccccc12)C(=O)N[C@@H](CCCCNC(=O)Nc1cccc(Cl)c1Cl)C(=O)N[C@@H](CC(=O)O)C(=O)N[C@@H](Cc1ccccc1)C(N)=O [Example 125, t-BOC-Trp-Lys(ε-N-(2,3-dichlorophenyl)aminocarbonyl)-Asp-PheNH2] (Boc-WK([CO-X15])DF-NH2) | – | – | > 10000 nM | 2.8 nM | – | –
3 | COc1ccc(C=CC(=O)NCCCC[C@H](NC(=O)[C@H](Cc2c[nH]c3ccccc23)NC(=O)OC(C)(C)C)C(=O)N[C@@H](CC(=O)O)C(=O)N[C@@H](Cc2ccccc2)C(N)=O)c(OC)c1 [Example 23, t-BOC-Trp-Lys(ε-N-(2,4-dimethoxycinnamoyl))-Asp-PheNH2] (Boc-WK(X10)DF-NH2) | – | – | 3000 nM | 130 nM | – | –
4 | Cc1ccccc1NC(=O)NCCCC[C@H](NC(=O)C(C#N)Cc1c[nH]c2ccccc12)C(=O)N[C@@H](CC(=O)O)C(=O)N[C@@H](Cc1ccccc1)C(N)=O (stereo partly shown) [Example 64, (2-Cyano-3-(3-indolyl)propionyl)-Lys(ε-N-(2-methylphenyl)aminocarbonyl)-Asp-PheNH2] | – | – | 640 nM | 10 nM | – | –
5 | Cc1ccccc1NC(=O)NCCCC[C@H](NC(=O)[C@H](Cc1c[nH]c2ccccc12)NC(=O)OC1C2CC3CC(C2)CC1C3)C(=O)N[C@@H](CC(=O)O)C(=O)N(C)[C@@H](Cc1ccccc1)C(N)=O (stereo partly shown) [Example 74, 2-Adamantyloxycarbonyl-Trp-Lys(ε-N-(2-methylphenyl)aminocarbonyl)Asp-(NMe)PheNH2] (X4-WK([CO-NH(2-Me-phenyl)])D[NMeF]-NH2) | 8000 nM | – | – | – | – | IC50 (Type-A CCK receptor): 22 nM
6 | CN(C(=O)[C@H](CCCCNC(=O)C=Cc1ccc(O)cc1)NC(=O)[C@H](Cc1c[nH]c2ccccc12)NC(=O)OC(C)(C)C)[C@@H](CC(=O)O)C(=O)N[C@@H](Cc1ccccc1)C(N)=O [Example 71, t-BOC-Trp-Lys(ε-N-(4-hydroxycinnamoyl))-(NMe)Asp-PheNH2] (Boc-WK(X1)[NMeD]F-NH2) | – | – | 5800 nM | 4.9 nM | – | –
7 | Cc1ccccc1NC(=O)NCCCC[C@H](NC(=O)[C@H](Cc1c[nH]c2ccccc12)NC(=O)NC(C)(C)C)C(=O)N[C@@H](CC(=O)O)C(=O)N(C)[C@@H](Cc1ccccc1)C(N)=O [Example 82, t-Butylaminocarbonyl-Trp-Lys(ε-N-(2-methylphenyl)aminocarbonyl)-Asp(NMe)PheNH2] ({NHtBu-CO}-WK([CO-NH(2-Me-phenyl)])D[NMeF]-NH2) | 4400 nM | – | – | – | – | IC50 (Type-A CCK receptor): 4.9 nM
8 | CN(C(=O)[C@H](CCCCNC(=O)c1ccc2cc(O)ccc2c1)NC(=O)[C@H](Cc1c[nH]c2ccccc12)NC(=O)OC(C)(C)C)[C@@H](CC(=O)O)C(=O)N(C)[C@@H](Cc1ccccc1)C(N)=O [Example 73] (Boc-WK(2Naphthoyl(6-OH))[NMeD][NMeF]-NH2) | – | – | 3700 nM | 15 nM | – | –
9 | Cc1ccccc1NC(=O)NCCCC[C@H](NC(=O)[C@H](Cc1c[nH]c2ccccc12)NC(=O)c1ccccc1)C(=O)N[C@@H](CC(=O)O)C(=O)N(C)[C@@H](Cc1ccccc1)C(N)=O [Example 89, Benzoyl-Trp-Lys(ε-N-(2-methylphenyl)aminocarbonyl)-Asp-(NMe)PheNH2] (Bz-WK([CO-NH(2-Me-phenyl)])D[NMeF]-NH2) | – | 1.8 nM | – | – | 4600 nM | –
10 | Cc1ccccc1NC(=O)NCCCC[C@H](NC(=O)[C@H](Cc1c[nH]c2ccccc12)NC(=O)OC(C)(C)C)C(=O)N[C@@H](CC(=O)O)C(=O)N[C@@H](CC1CCCCC1)C(N)=O [Example 116, t-BOC-Trp-Lys(ε-N-(2-methylphenyl)aminocarbonyl)-Asp-ChaNH2] (Boc-WK([CO-NH(2-Me-phenyl)])D[Cha]-NH2) | – | 10 nM | – | – | 4000 nM | –
11 | COC(=O)N[C@@H](Cc1c[nH]c2ccccc12)C(=O)N[C@@H](CCCCNC(=O)Nc1ccccc1C)C(=O)N[C@@H](CC(=O)O)C(=O)N(C)[C@@H](Cc1ccccc1)C(N)=O [Example 80, Methoxycarbonyl-Trp-Lys(ε-N-(2-methylphenyl)aminocarbonyl)-Asp-(NMe)PheNH2] (Moc-WK([CO-NH(2-Me-phenyl)])D[NMeF]-NH2) | 5200 nM | – | – | – | – | IC50 (Type-A CCK receptor): 4.8 nM
12 | Cc1ccccc1NC(=O)NCCCC[C@H](NC(=O)[C@H](Cc1c[nH]c2ccccc12)NC(=O)CC(c1ccccc1)c1ccccc1)C(=O)N[C@@H](CC(=O)O)C(=O)N(C)[C@@H](Cc1ccccc1)C(N)=O [Example 92, (3,3-Diphenylpropionyl)-Trp-Lys(ε-N-(2-methylphenyl)aminocarbonyl)-Asp-(NMe)PheNH2] ({Propanoyl(3,3-Ph2)}-WK([CO-NH(2-Me-phenyl)])D[NMeF]-NH2) | 5000 nM | – | – | – | – | IC50 (Type-A CCK receptor): 5.6 nM
13 | COC(=O)N[C@@H](Cc1c[nH]c2ccccc12)C(=O)N[C@@H](CCCCNC(=O)Nc1ccccc1C)C(=O)N(C)[C@@H](CC(=O)O)C(=O)N(C)[C@@H](Cc1ccccc1)C(N)=O [Example 124] (Moc-WK([CO-NH(2-Me-phenyl)])[NMeD][NMeF]-NH2) | – | 4.5 nM | – | – | 2600 nM | –
14 | Cc1ccccc1NC(=O)NCCCC[C@H](NC(=O)[C@H](Cc1c[nH]c2ccccc12)NC(=O)CCC(=O)O)C(=O)N[C@@H](CC(=O)O)C(=O)N(C)[C@@H](Cc1ccccc1)C(N)=O [Example 94, (3-Carboxylpropionyl)-Trp-Lys(ε-N-(2-methylphenyl)aminocarbonyl)-Asp-(NMe)PheNH2] (Suc-WK([CO-NH(2-Me-phenyl)])D[NMeF]-NH2) | 5600 nM | – | – | – | – | IC50 (Type-A CCK receptor): 16 nM
15 | Cc1ccccc1NC(=O)NCCCC[C@H](NC(=O)[C@H](Cc1c[nH]c2ccccc12)NC(=O)CC(C)(C)C)C(=O)N[C@@H](CC(=O)O)C(=O)N(C)[C@@H](Cc1ccccc1)C(N)=O [Example 87, t-Butylacetyl-Trp-Lys(ε-N-(2-methylphenyl)aminocarbonyl)-Asp-(NMe)PheNH2] ({Butanoyl(3,3-Me2)}-WK([CO-NH(2-Me-phenyl)])D[NMeF]-NH2) | – | 4.5 nM | – | – | 8400 nM | –
16 | CN(C(=O)[C@H](CCCCNC(=O)C=Cc1ccc(O)cc1)NC(=O)[C@H](Cc1c[nH]c2ccccc12)NC(=O)OC(C)(C)C)[C@@H](CC(=O)O)C(=O)N(C)[C@@H](Cc1ccccc1)C(N)=O [Example 72, t-BOC-Trp-Lys(ε-N-(4-hydroxycinnamoyl))-(NMe)Asp-(NMe)PheNH2] (Boc-WK(X1)[NMeD][NMeF]-NH2) | – | – | > 9000 nM | 12 nM | – | –
17 | COC(=O)N[C@@H](Cc1c[nH]c2ccccc12)C(=O)N[C@@H](CCCCNC(=O)Nc1ccccc1C)C(=O)N(C)[C@@H](CC(=O)O)C(=O)N[C@@H](Cc1ccccc1)C(N)=O [Example 81, Methoxycarbonyl-Trp-Lys(ε-N-(2-methylphenyl)aminocarbonyl)-(NMe)Asp-PheNH2] (Moc-WK([CO-NH(2-Me-phenyl)])[NMeD]F-NH2) | – | 2.1 nM | – | – | > 10000 nM | –
18 | Cc1ccccc1NC(=O)NCCCC[C@H](NC(=O)C(C)Cc1c[nH]c2ccccc12)C(=O)N[C@@H](CC(=O)O)C(=O)N(C)[C@@H](Cc1ccccc1)C(N)=O (stereo partly shown) [Example 104, (2-Methyl-3-(3-indolyl)propionyl)-Lys(ε-N-(2-methylphenyl)aminocarbonyl)-Asp-(NMe)PheNH2] | – | – | 4100 nM | 200 nM | – | –
19 | Cc1ccccc1NC(=O)NCCCC[C@H](NC(=O)[C@H](Cc1c[nH]c2ccccc12)NC(=O)OC(C)(C)C)C(=O)N[C@@H](CC(=O)O)C(=O)N1CCC[C@]1(Cc1ccccc1)C(N)=O [Example 115, t-BOC-Trp-Lys(ε-N-(2-methylphenyl)aminocarbonyl)-Asp-(S)-α-benzylprolinamide] | – | 18 nM | – | – | > 10000 nM | –
20 | Cc1ccccc1NC(=O)NCCCC[C@H](NC(=O)C(C)(N)Cc1c[nH]c2ccccc12)C(=O)N[C@@H](CC(=O)O)C(=O)N(C)[C@@H](Cc1ccccc1)C(N)=O (single isomer, unassigned; isomer b) [Example 99, (α-Methyl)Trp-Lys(ε-N-(2-methylphenyl)aminocarbonyl)-Asp-(NMe)PheNH2 (Isomer B)] | – | 67 nM | – | – | > 10000 nM | –
